#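 Following 48 hours of exposure in 96-well plates, responses at five concentrations were used to interpolate endpoints linearly. Definition used: TGI = concentration required for complete inhibition of growth.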
# Columns and labels:
# Experiment in all cases: NCI anticancer screen, dose series, 48 h
# A498 renal = tested on: A498 renal
# A549 NSCLC = tested on: A549 NSCLC
# ACHN renal = tested on: ACHN renal
# CAKI-1 renal = tested on: CAKI-1 renal
# CCRF-CEM leukemia = tested on: CCRF-CEM leukemia
# COLO 205 colon = tested on: COLO 205 colon
# DLD-1 colon = tested on: DLD-1 colon
# DMS 273 small cell lung = tested on: DMS 273 small cell lung
# EKVX NSCLC = tested on: EKVX NSCLC
# HCC-2998 colon = tested on: HCC-2998 colon
# HCT-116 colon = tested on: HCT-116 colon
# HCT-15 colon = tested on: HCT-15 colon
# HL-60(TB) leukemia = tested on: HL-60(TB) leukemia
# HOP-62 NSCLC = tested on: HOP-62 NSCLC
# HOP-92 NSCLC = tested on: HOP-92 NSCLC
# HT29 colon = tested on: HT29 colon
# IGROV1 ovarian = tested on: IGROV1 ovarian
# K-562 leukemia = tested on: K-562 leukemia
# KM12 colon = tested on: KM12 colon
# KM20L2 colon = tested on: KM20L2 colon
# LOX IMVI melanoma = tested on: LOX IMVI melanoma
# LXFL 529 NSCLC = tested on: LXFL 529 NSCLC
# M14 melanoma = tested on: M14 melanoma
# M19-MEL melanoma = tested on: M19-MEL melanoma
# MOLT-4 leukemia = tested on: MOLT-4 leukemia
# NCI-H226 lung = tested on: NCI-H226 lung
# NCI-H23 lung = tested on: NCI-H23 lung
# NCI-H460 lung = tested on: NCI-H460 lung
# NCI-H522 lung = tested on: NCI-H522 lung
# OVCAR-4 ovarian = tested on: OVCAR-4 ovarian
# OVCAR-5 ovarian = tested on: OVCAR-5 ovarian
# OVCAR-8 ovarian = tested on: OVCAR-8 ovarian
# RPMI-8226 leukemia = tested on: RPMI-8226 leukemia
# RXF 393 renal = tested on: RXF 393 renal
# SF-268 CNS = tested on: SF-268 CNS
# SF-295 CNS = tested on: SF-295 CNS
# SF-539 CNS = tested on: SF-539 CNS
# SK-MEL-2 melanoma = tested on: SK-MEL-2 melanoma
# SK-MEL-28 melanoma = tested on: SK-MEL-28 melanoma
# SK-MEL-5 melanoma = tested on: SK-MEL-5 melanoma
# SK-OV-3 ovarian = tested on: SK-OV-3 ovarian
# SN12C renal = tested on: SN12C renal
# SNB-19 CNS = tested on: SNB-19 CNS
# SNB-75 CNS = tested on: SNB-75 CNS
# SNB-78 CNS = tested on: SNB-78 CNS
# SR leukemia = tested on: SR leukemia
# SW-620 colon = tested on: SW-620 colon
# TK-10 renal = tested on: TK-10 renal
# U251 CNS = tested on: U251 CNS
# UACC-257 melanoma = tested on: UACC-257 melanoma
# UACC-62 melanoma = tested on: UACC-62 melanoma
# UO-31 renal = tested on: UO-31 renal
# XF 498 CNS = tested on: XF 498 CNS
# 786-0 renal = tested on: 786-0 renal
# DMS 114 small cell lung = tested on: DMS 114 small cell lung
# HOP-18 NSCLC = tested on: HOP-18 NSCLC
# MALME-3M melanoma = tested on: MALME-3M melanoma
# OVCAR-3 ovarian = tested on: OVCAR-3 ovarian
smiles,measurement,setting,value
CC(=O)NNc1nc(C)c(C(=O)NNC(=O)C(=O)Nc2c(C)cccc2C(C)(C)C)s1,TGI,A498 renal,> 100 µM
same,TGI,A549 NSCLC,> 100 µM
same,TGI,ACHN renal,> 100 µM
same,TGI,CAKI-1 renal,> 100 µM
same,TGI,CCRF-CEM leukemia,69.9 µM
same,TGI,COLO 205 colon,> 100 µM
same,TGI,DLD-1 colon,> 100 µM
same,TGI,DMS 273 small cell lung,> 100 µM
same,TGI,EKVX NSCLC,> 100 µM
same,TGI,HCC-2998 colon,> 100 µM
same,TGI,HCT-116 colon,> 100 µM
same,TGI,HCT-15 colon,> 100 µM
same,TGI,HL-60(TB) leukemia,> 100 µM
same,TGI,HOP-62 NSCLC,> 100 µM
same,TGI,HOP-92 NSCLC,> 100 µM
same,TGI,HT29 colon,> 100 µM
same,TGI,IGROV1 ovarian,> 100 µM
same,TGI,K-562 leukemia,> 100 µM
same,TGI,KM12 colon,> 100 µM
same,TGI,KM20L2 colon,> 100 µM
same,TGI,LOX IMVI melanoma,> 100 µM
same,TGI,LXFL 529 NSCLC,> 100 µM
same,TGI,M14 melanoma,> 100 µM
same,TGI,M19-MEL melanoma,> 100 µM
same,TGI,MOLT-4 leukemia,> 100 µM
same,TGI,NCI-H226 lung,> 100 µM
same,TGI,NCI-H23 lung,> 100 µM
same,TGI,NCI-H460 lung,> 100 µM
same,TGI,NCI-H522 lung,57.1 µM
same,TGI,OVCAR-4 ovarian,> 100 µM
same,TGI,OVCAR-5 ovarian,> 100 µM
same,TGI,OVCAR-8 ovarian,> 100 µM
same,TGI,RPMI-8226 leukemia,> 100 µM
same,TGI,RXF 393 renal,> 100 µM
same,TGI,SF-268 CNS,> 100 µM
same,TGI,SF-295 CNS,> 100 µM
same,TGI,SF-539 CNS,> 100 µM
same,TGI,SK-MEL-2 melanoma,> 100 µM
same,TGI,SK-MEL-28 melanoma,> 100 µM
same,TGI,SK-MEL-5 melanoma,> 100 µM
same,TGI,SK-OV-3 ovarian,> 100 µM
same,TGI,SN12C renal,> 100 µM
same,TGI,SNB-19 CNS,> 100 µM
same,TGI,SNB-75 CNS,> 100 µM
same,TGI,SNB-78 CNS,> 100 µM
same,TGI,SR leukemia,> 100 µM
same,TGI,SW-620 colon,> 100 µM
same,TGI,TK-10 renal,> 100 µM
same,TGI,U251 CNS,> 100 µM
same,TGI,UACC-257 melanoma,> 100 µM
same,TGI,UACC-62 melanoma,> 100 µM
same,TGI,UO-31 renal,> 100 µM
same,TGI,XF 498 CNS,> 100 µM
COC(=O)C1=C(c2ccc3c(c2)OCO3)OC(c2cc(OC)c(OC)c(OC)c2)C1 (stereo not given),TGI,786-0 renal,> 100 µM
same,TGI,A498 renal,8.04 µM
same,TGI,A549 NSCLC,> 100 µM
same,TGI,ACHN renal,> 100 µM
same,TGI,CAKI-1 renal,> 100 µM
same,TGI,CCRF-CEM leukemia,> 100 µM
same,TGI,COLO 205 colon,3.98 µM
same,TGI,DLD-1 colon,> 100 µM
same,TGI,DMS 114 small cell lung,9.33 µM
same,TGI,DMS 273 small cell lung,58.8 µM
same,TGI,EKVX NSCLC,> 100 µM
same,TGI,HCC-2998 colon,> 100 µM
same,TGI,HCT-116 colon,85.4 µM
same,TGI,HCT-15 colon,15.2 µM
same,TGI,HOP-18 NSCLC,> 100 µM
same,TGI,HOP-62 NSCLC,> 100 µM
same,TGI,HOP-92 NSCLC,> 100 µM
same,TGI,HT29 colon,4.63 µM
same,TGI,IGROV1 ovarian,9.53 µM
same,TGI,K-562 leukemia,> 100 µM
same,TGI,LOX IMVI melanoma,> 100 µM
same,TGI,LXFL 529 NSCLC,> 100 µM
same,TGI,M14 melanoma,84.1 µM
same,TGI,M19-MEL melanoma,> 100 µM
same,TGI,MALME-3M melanoma,> 100 µM
same,TGI,MOLT-4 leukemia,> 100 µM
same,TGI,NCI-H226 lung,> 100 µM
same,TGI,NCI-H23 lung,> 100 µM
same,TGI,NCI-H460 lung,> 100 µM
same,TGI,OVCAR-3 ovarian,4.26 µM
same,TGI,OVCAR-4 ovarian,> 100 µM
same,TGI,OVCAR-5 ovarian,> 100 µM
same,TGI,OVCAR-8 ovarian,92.4 µM
same,TGI,RPMI-8226 leukemia,> 100 µM
same,TGI,SF-268 CNS,> 100 µM
same,TGI,SF-295 CNS,> 100 µM
same,TGI,SF-539 CNS,87.8 µM
same,TGI,SK-MEL-28 melanoma,> 100 µM
same,TGI,SK-MEL-5 melanoma,60.3 µM
same,TGI,SK-OV-3 ovarian,8.09 µM
same,TGI,SN12C renal,> 100 µM
same,TGI,SNB-19 CNS,> 100 µM
same,TGI,SNB-75 CNS,> 100 µM
same,TGI,SNB-78 CNS,> 100 µM
same,TGI,SR leukemia,> 100 µM
same,TGI,SW-620 colon,> 100 µM
same,TGI,TK-10 renal,> 100 µM
same,TGI,U251 CNS,> 100 µM
same,TGI,UACC-257 melanoma,> 100 µM
same,TGI,UACC-62 melanoma,19.2 µM
same,TGI,UO-31 renal,> 100 µM
same,TGI,XF 498 CNS,> 100 µM

# From PubChem BioAssay (NCI)
